In ChEMBL document CHEMBL3885861, “Open TG-GATES”:

Organism: Rattus norvegicus
Assay: Open TG-GATES - Regimen: Single
Type: toxicity, organism-based, Sprague-Dawley
Parameters: regimen Single, gender Male, age 6 weeks
Settings: in vivo, po, 0 mg/kg, route gavage, dose level Control; for APTT / Bas / Eos / Fbg / Hb / Ht / Lym / MCH / MCHC / MCV / Mono / Neu / PT / Plat / RBC / Ret / WBC: tissue Blood; for KIDNEY_L / KIDNEY_R / KIDNEY_TOTAL: tissue Kidney; for LIVER: tissue Liver; for ALP / ALT / AST / BUN / CRE / Ca / Cl / DBIL / GLC / IP / K / LDH / Na / PL / RALB / TBIL / TC / TG / TP / gamma-GTP: tissue Plasma

COc1cc([C@@H]2c3cc4c(cc3[C@@H](O[C@@H]3O[C@@H]5CO[C@@H](C)O[C@H]5[C@H](O)[C@H]3O)[C@H]3COC(=O)[C@H]23)OCO4)cc(OC)c1O [ETOPOSIDE]
TERMINAL_BW (3 h): 199.4 g | APTT (3 h): 17.1 s | Bas (3 h): 0% | Eos (3 h): 1.2% | Fbg (3 h): 192.2 mg/dL | Hb (3 h): 13.3 g/dL | Ht (3 h): 39.3% | Lym (3 h): 74.8% | MCH (3 h): 22.4 pg | MCHC (3 h): 33.8% | MCV (3 h): 66.2 fL | Mono (3 h): 8% | Neu (3 h): 15.8% | PT (3 h): 12.2 s | Plat (3 h): 113.5 x10_4/uL | RBC (3 h): 594.2 x10_4/ul | Ret (3 h): 10.6% | WBC (3 h): 85 x10_2/uL | KIDNEY_L (3 h): 1 g | KIDNEY_R (3 h): 1 g | KIDNEY_TOTAL (3 h): 2 g | LIVER (3 h): 9.5 g | ALP (3 h): 857.8 IU/L | ALT (3 h): 32.8 IU/L | AST (3 h): 67.6 IU/L | BUN (3 h): 11.8 mg/dL | CRE (3 h): 0.5 mg/dL | Ca (3 h): 10.4 mg/dL | Cl (3 h): 105 meq/L | DBIL (3 h): 0.034 mg/dL | GLC (3 h): 197.6 mg/dL | IP (3 h): 9.1 mg/dL | K (3 h): 4.7 meq/L | LDH (3 h): 97.4 IU/L | Na (3 h): 141.6 meq/L | PL (3 h): 126.6 mg/dL | RALB (3 h): 3.4 g/dL | TBIL (3 h): 0.3 mg/dL | TC (3 h): 71.8 mg/dL | TG (3 h): 43 mg/dL | TP (3 h): 5.2 g/dL | gamma-GTP (3 h): 1 IU/L | TERMINAL_BW (6 h): 198 g | APTT (6 h): 16.6 s | Bas (6 h): 0% | Eos (6 h): 0.8% | Fbg (6 h): 201.6 mg/dL | Hb (6 h): 13.4 g/dL | Ht (6 h): 39.7% | Lym (6 h): 82.4% | MCH (6 h): 22 pg | MCHC (6 h): 33.7% | MCV (6 h): 65.3 fL | Mono (6 h): 5.6% | Neu (6 h): 11.2% | PT (6 h): 11.9 s | Plat (6 h): 117.8 x10_4/uL | RBC (6 h): 607.8 x10_4/ul | Ret (6 h): 9.8% | WBC (6 h): 93.7 x10_2/uL | KIDNEY_L (6 h): 0.9 g | KIDNEY_R (6 h): 0.9 g | KIDNEY_TOTAL (6 h): 1.8 g | LIVER (6 h): 9.1 g | ALP (6 h): 946.6 IU/L | ALT (6 h): 36 IU/L | AST (6 h): 65.2 IU/L | BUN (6 h): 11.6 mg/dL | CRE (6 h): 0.6 mg/dL | Ca (6 h): 10.6 mg/dL | Cl (6 h): 105 meq/L | DBIL (6 h): 0.016 mg/dL | IP (6 h): 10.5 mg/dL | K (6 h): 4.8 meq/L | LDH (6 h): 65.8 IU/L | Na (6 h): 142.4 meq/L | PL (6 h): 132.8 mg/dL | RALB (6 h): 3.3 g/dL | TBIL (6 h): 0.4 mg/dL | TC (6 h): 72.8 mg/dL | TG (6 h): 68.4 mg/dL | TP (6 h): 5.2 g/dL | gamma-GTP (6 h): 1 IU/L | TERMINAL_BW (9 h): 194.1 g | APTT (9 h): 16.9 s | Bas (9 h): 0% | Eos (9 h): 1.2% | Fbg (9 h): 206 mg/dL | Hb (9 h): 13.4 g/dL | Ht (9 h): 39.7% | Lym (9 h): 74.4% | MCH (9 h): 22.2 pg | MCHC (9 h): 33.9% | MCV (9 h): 65.6 fL | Mono (9 h): 9.8% | Neu (9 h): 15% | PT (9 h): 10.9 s | Plat (9 h): 117.1 x10_4/uL | RBC (9 h): 604.6 x10_4/ul | Ret (9 h): 9.1% | WBC (9 h): 71.2 x10_2/uL | KIDNEY_L (9 h): 0.9 g | KIDNEY_R (9 h): 0.9 g | KIDNEY_TOTAL (9 h): 1.9 g | LIVER (9 h): 8.4 g | ALP (9 h): 752.2 IU/L | ALT (9 h): 29.8 IU/L | AST (9 h): 58.2 IU/L | BUN (9 h): 10.4 mg/dL | CRE (9 h): 0.5 mg/dL | Ca (9 h): 10.6 mg/dL | Cl (9 h): 107.6 meq/L | DBIL (9 h): 0.022 mg/dL | GLC (9 h): 190.6 mg/dL | IP (9 h): 10.1 mg/dL | K (9 h): 4.6 meq/L | LDH (9 h): 59.2 IU/L | Na (9 h): 144.6 meq/L | PL (9 h): 127.4 mg/dL | RALB (9 h): 3.4 g/dL | TBIL (9 h): 0.4 mg/dL | TC (9 h): 71.6 mg/dL | TG (9 h): 28.4 mg/dL | TP (9 h): 5.4 g/dL | gamma-GTP (9 h): 0.8 IU/L | TERMINAL_BW (24 h): 215.6 g | APTT (24 h): 16.3 s | Bas (24 h): 0% | Eos (24 h): 1.2% | Fbg (24 h): 207.6 mg/dL | Hb (24 h): 13.1 g/dL | Ht (24 h): 38.4% | Lym (24 h): 78.2% | MCH (24 h): 22.7 pg | MCHC (24 h): 34.1% | MCV (24 h): 66.6 fL | Mono (24 h): 6% | Neu (24 h): 14.6% | PT (24 h): 11.6 s | Plat (24 h): 107.4 x10_4/uL | RBC (24 h): 578 x10_4/ul | Ret (24 h): 8.8% | WBC (24 h): 94.9 x10_2/uL | KIDNEY_L (24 h): 1 g | KIDNEY_R (24 h): 1 g | KIDNEY_TOTAL (24 h): 2 g | LIVER (24 h): 10.9 g | ALP (24 h): 866 IU/L | ALT (24 h): 38.2 IU/L | AST (24 h): 68.2 IU/L | CRE (24 h): 0.6 mg/dL | Ca (24 h): 10.9 mg/dL | Cl (24 h): 104.6 meq/L | DBIL (24 h): 0.03 mg/dL | GLC (24 h): 196.6 mg/dL | IP (24 h): 7.7 mg/dL | K (24 h): 4.8 meq/L | LDH (24 h): 85.2 IU/L | Na (24 h): 141.4 meq/L | PL (24 h): 161.6 mg/dL | RALB (24 h): 3.6 g/dL | TBIL (24 h): 0.3 mg/dL | TC (24 h): 92.2 mg/dL | TG (24 h): 84.4 mg/dL | TP (24 h): 5.6 g/dL | gamma-GTP (24 h): 1.6 IU/L
